In ChEMBL document CHEMBL1127103, “New indole derivatives as potent and selective serotonin uptake inhibitors” (Bioorg Med Chem Lett, 1993):

Key:
[1] = target: T1, Alpha-1 adrenergic receptor (Mus musculus, UniProt P97714+P97717+P97718); test: Tested for its binding affinity against Alpha-1 adrenergic receptor; showed no appreciable affinity at concentration specified; type: protein assay
T1 sequence (P97714 whole entry): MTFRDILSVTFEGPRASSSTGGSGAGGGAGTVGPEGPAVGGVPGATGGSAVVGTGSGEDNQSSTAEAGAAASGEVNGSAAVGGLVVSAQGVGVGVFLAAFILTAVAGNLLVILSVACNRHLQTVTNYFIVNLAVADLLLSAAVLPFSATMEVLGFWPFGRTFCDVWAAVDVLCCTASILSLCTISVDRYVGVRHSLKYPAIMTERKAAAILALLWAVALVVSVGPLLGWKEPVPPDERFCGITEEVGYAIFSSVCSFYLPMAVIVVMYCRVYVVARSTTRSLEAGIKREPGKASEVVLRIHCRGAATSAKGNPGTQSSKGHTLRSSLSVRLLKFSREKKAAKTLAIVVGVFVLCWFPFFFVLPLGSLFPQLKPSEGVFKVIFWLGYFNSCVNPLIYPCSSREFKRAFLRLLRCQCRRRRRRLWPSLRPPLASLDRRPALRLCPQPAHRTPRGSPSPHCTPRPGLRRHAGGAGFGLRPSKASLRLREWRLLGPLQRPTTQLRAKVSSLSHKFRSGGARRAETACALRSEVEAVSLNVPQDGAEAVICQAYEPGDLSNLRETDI
T1 sequence (P97717 whole entry): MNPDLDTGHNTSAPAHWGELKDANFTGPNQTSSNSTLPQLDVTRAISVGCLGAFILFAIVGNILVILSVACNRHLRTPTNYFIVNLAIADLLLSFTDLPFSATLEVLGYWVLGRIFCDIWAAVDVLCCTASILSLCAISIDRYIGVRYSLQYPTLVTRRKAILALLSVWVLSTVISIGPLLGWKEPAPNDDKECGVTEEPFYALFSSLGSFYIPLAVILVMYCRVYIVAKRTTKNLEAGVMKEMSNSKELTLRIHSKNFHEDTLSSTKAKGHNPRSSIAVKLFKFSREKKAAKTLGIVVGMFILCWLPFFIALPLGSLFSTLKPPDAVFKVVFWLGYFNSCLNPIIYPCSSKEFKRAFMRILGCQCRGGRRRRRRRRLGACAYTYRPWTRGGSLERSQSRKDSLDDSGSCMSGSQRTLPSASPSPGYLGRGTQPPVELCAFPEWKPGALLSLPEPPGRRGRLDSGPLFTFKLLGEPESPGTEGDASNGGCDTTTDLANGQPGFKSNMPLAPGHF
T1 sequence (P97718 whole entry): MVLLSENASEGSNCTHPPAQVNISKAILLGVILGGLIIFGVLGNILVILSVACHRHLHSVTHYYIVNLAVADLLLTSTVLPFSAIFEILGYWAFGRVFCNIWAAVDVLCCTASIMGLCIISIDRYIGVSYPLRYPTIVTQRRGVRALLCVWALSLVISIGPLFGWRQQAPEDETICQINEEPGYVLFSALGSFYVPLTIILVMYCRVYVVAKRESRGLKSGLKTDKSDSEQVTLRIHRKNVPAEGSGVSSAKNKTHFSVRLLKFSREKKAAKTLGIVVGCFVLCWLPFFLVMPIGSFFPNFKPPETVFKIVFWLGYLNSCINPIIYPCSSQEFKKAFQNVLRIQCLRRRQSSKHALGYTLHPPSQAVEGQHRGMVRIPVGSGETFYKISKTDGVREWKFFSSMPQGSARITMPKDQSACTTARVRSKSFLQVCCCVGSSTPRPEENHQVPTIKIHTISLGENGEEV

D(2) dopamine receptor = D(2) dopamine receptor (Mus musculus, UniProt P61168); test: Tested for its binding affinity against Dopamine receptor D2; showed no appreciable affinity at concentration specified
D(2) dopamine receptor, sequence (P61168 whole entry): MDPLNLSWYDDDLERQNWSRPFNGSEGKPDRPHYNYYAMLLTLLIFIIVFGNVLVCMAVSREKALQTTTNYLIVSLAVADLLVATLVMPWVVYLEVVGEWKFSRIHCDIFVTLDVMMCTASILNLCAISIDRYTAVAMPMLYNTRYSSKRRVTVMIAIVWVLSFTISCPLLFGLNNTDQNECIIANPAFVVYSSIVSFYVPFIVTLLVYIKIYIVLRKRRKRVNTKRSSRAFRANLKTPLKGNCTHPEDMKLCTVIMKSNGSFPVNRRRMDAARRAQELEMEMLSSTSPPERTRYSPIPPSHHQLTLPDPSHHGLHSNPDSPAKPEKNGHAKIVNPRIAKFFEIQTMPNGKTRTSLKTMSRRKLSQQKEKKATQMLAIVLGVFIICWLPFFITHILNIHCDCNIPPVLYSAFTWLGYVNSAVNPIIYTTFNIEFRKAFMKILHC

[2] = target: Muscarinic acetylcholine receptor; test: Tested for its binding affinity against muscarinic receptor; showed no appreciable affinity at concentration specified; type: protein assay
[3] = target: Serotonin transporter (Rattus norvegicus); test: Compound was evaluated for inhibition of 5-HT uptake by measuring its ability to inhibit [3H]paroxetine binding to rat cortical membranes
Mus musculus [4] = test: Effective dose required for half maximal potentiation of head twitches observed with 5-HTP after oral administration (1 hr 30 min); type: functional
Mus musculus [5] = test: Effective dose required for half maximal potentiation of head twitches observed with 5-HTP after subcutaneous administration (1 hr); type: functional; conditions: sc

Row | SMILES | IC50 [1] | IC50 (D(2) dopamine receptor) | IC50 [2] | IC50 [3] | ED50 (Mus musculus [4]) | ED50 (Mus musculus [5])
1 | O=S1(=O)Nc2cccc3cccc(c23)N1CCN1CCC(Cc2c[nH]c3ccc(F)cc23)CC1 | > 100 nM | > 100 nM | > 100 nM | 12 nM |  | 
2 | CC1(C)CN(CCN2CCC(Cc3c[nH]c4ccc(F)cc34)CC2)C(=O)c2ccccc21 | > 100 nM | > 100 nM | > 100 nM | 3.8 nM | 20 mg/kg | 
3 | C[Si]1(C)CN(CCN2CCC(Cc3c[nH]c4ccc(F)cc34)CC2)C(=O)c2ccccc21 | > 100 nM | > 100 nM | > 100 nM | 2.6 nM | > 20 mg/kg | 
4 | CN1c2cccc3cccc(c23)N(CCN2CCC(Cc3c[nH]c4ccc(F)cc34)CC2)S1(=O)=O | > 100 nM | > 100 nM | > 100 nM | 3.7 nM | > 20 mg/kg | 
5 | O=C1Cc2ccccc2N1CCN1CCC(Cc2c[nH]c3ccc(F)cc23)CC1 | > 100 nM | > 100 nM | > 100 nM | 3.1 nM |  | 
6 | Cn1c(=O)c2ccccc2n(CCN2CCC(Cc3c[nH]c4ccc(F)cc34)CC2)c1=O | > 100 nM | > 100 nM | > 100 nM | 5.9 nM | 20 mg/kg | 
7 | O=C1N(CCN2CCC(Cc3c[nH]c4ccc(F)cc34)CC2)c2ccccc2C12CC2 | > 100 nM | > 100 nM | > 100 nM | 4 nM | > 20 mg/kg | 
8 | CN(CCN1CCC(Cc2c[nH]c3ccc(F)cc23)CC1)S(=O)(=O)c1ccccc1 | > 100 nM | > 100 nM | > 100 nM | 30 nM |  | 
9 | O=S1(=O)c2ccccc2CN1CCN1CCC(Cc2c[nH]c3ccc(F)cc23)CC1 | > 100 nM | > 100 nM | > 100 nM | 1 nM | 7.2 mg/kg | 4.5 mg/kg
10 | CNCCC(Oc1ccc(C(F)(F)F)cc1)c1ccccc1 (stereo not drawn) [FLUOXETINE] |  |  |  |  |  | 6.3 mg/kg
11 | COC1=Nc2cccc3cccc(c23)N1CCN1CCC(Cc2c[nH]c3ccc(F)cc23)CC1 | > 100 nM | > 100 nM | > 100 nM | 22.6 nM |  | 
12 | O=S1(=O)N(CCN2CCC(Cc3c[nH]c4ccc(F)cc34)CC2)c2cccc3c2N1CCC3 [RP-68303] |  |  |  | 1.2 nM |  | 5.1 mg/kg
13 | O=C1c2cccc3cccc(c23)C(=O)N1CCN1CCC(Cc2c[nH]c3ccc(F)cc23)CC1 | > 100 nM | > 100 nM | > 100 nM |  | 2.3 mg/kg | 6.1 mg/kg
14 | O=S(=O)(NCCN1CCC(Cc2c[nH]c3ccc(F)cc23)CC1)c1ccccc1 | > 100 nM | > 100 nM | > 100 nM | 6 nM | > 20 mg/kg | 
15 | C[Si]1(C)CN(CCN2CCC(Cc3c[nH]c4ccc(F)cc34)CC2)S(=O)(=O)c2ccccc21 | > 100 nM | > 100 nM | > 100 nM |  |  | 
16 | O=c1[nH]c2ccccc2c(=O)n1CCN1CCC(Cc2c[nH]c3ccc(F)cc23)CC1 | > 100 nM | > 100 nM | > 100 nM | 0.5 nM | 20 mg/kg | 
17 | O=C1CSc2ccccc2N1CCN1CCC(Cc2c[nH]c3ccc(F)cc23)CC1 | > 100 nM | > 100 nM | > 100 nM | 1.1 nM | > 20 mg/kg | 
18 | O=C1Nc2cccc3cccc(c23)N1CCN1CCC(Cc2c[nH]c3ccc(F)cc23)CC1 | > 100 nM | > 100 nM | > 100 nM | 1.5 nM | 2 mg/kg | 4 mg/kg
19 | O=C1CN(CCN2CCC(Cc3c[nH]c4ccc(F)cc34)CC2)S(=O)(=O)c2ccccc21 | > 100 nM | > 100 nM | > 100 nM |  | > 20 mg/kg | 
20 | O=C1Nc2ccccc2S(=O)(=O)N1CCN1CCC(Cc2c[nH]c3ccc(F)cc23)CC1 | > 100 nM | > 100 nM | > 100 nM | 2.1 nM | > 20 mg/kg | 
